Measurements reported in patent US7714006B1, “Methods of modifying the bioavailability of metaxalone” (King Pharmaceuticals Research & Development, Inc., priority 2001, dated 2010).
Like-named read-outs stand apart in the source and are kept apart here.

Legend:
[1] = Effects of age and gender on fasted PK parameters, study 106 (2×400 mg without food); type: in vivo, human
Method: In addition, the robustness of the results are assessed by applying similar analysis approaches to the data from two other studies: • Study AN151607-101 (hereafter referred to as the 101 study): a two-period, randomized crossover trial with treatment conditions 1×400 mg with food and 1×400 mg without food; • Study AN151607-106 (hereafter referred to as the 106 study): a single dose trial with treatment condition 2×400 mg without food.
(§1) Study 106 was a single dose trial conducted in 48 healthy volunteers. The mean age was 24.7 years, with a range from 18 to 50 years. The single treatment condition in this study was 2×400 mg without food. Blood samples for PK analyses were obtained at the same time points as in the 103 and 105 studies.
First, Pearson and Spearman correlation coefficients between age and each of the three PK parameters were computed. The correlation coefficients and two-sided p-values from the test of the null hypothesis of no association are shown below in TABLE VIIIa:
Linear regression models using the natural logarithm of each of the three PK parameters as the dependent variable and age as the independent variable were fitted in order to estimate the magnitude of the associations with age.
as §1, with “volunteers (24 males, 24 females).” for “volunteers.”
The same regression modeling strategy as was described in Sections 3.2 and 3.3 was also used. In the initial regression models with a gender effect and separate age effects for males and females, the parameter estimates for all three variables were negative for males and positive for females. In addition, the age effect in females was statistically significant for ln(AUC(last)) and ln(AUC(inf)). However, the tests of equality between the age effects for males and females (i.e., the age-by-gender interaction) were not statistically significant for any of the three variables; the p-values ranged from 0.08 to 0.11.

[2] = Food effect study: single oral Skelaxin 400 mg tablet with vs without food, healthy subjects, plasma pharmacokinetics; type: in vivo, human; conditions: for AUC(0-inf) / AUC(0-t) / Cmax / half-life / Tmax: both sexes, human, plasma, oral, 400 mg; for half-life: read-out: T1/2, least squares mean (converted); for Tmax: read-out: Tmax, least squares mean
Method: The effect of food on metaxalone absorption was identified in a study designed to compare the bioavailability of 400 mg of metaxalone in the formulation the drug product Skelaxin® administered to healthy volunteers with and without food.
An objective was to evaluate the bioavailability of metaxalone when administered to subjects with and without food. A single center, single dose, open-label, two-period, randomized, crossover trial in healthy subjects was conducted over a period of approximately 32 days.
Treatment A: metaxalone tablet (400 mg) administered with food
Treatment B: metaxalone tablet (400 mg) administered without food
In fed treatment condition A, study drug was taken 15 minutes after the test meal. The test meal was consumed over a 15 minute time period. There was a 6-day washout period between study drug administrations. Seventeen blood samples were collected, starting with baseline (0 hour) and at the following time points: 0.5, 1, 1.5, 2, 2.5, 3, 3.5, 4, 4.5, 5, 6, 8, 12, 16; 24, and 36 hours.
A total of 44 subjects (31 males/13 females) were enrolled and dosed. Only the plasma of subjects who completed the study were assayed and used for the pharmacokinetic analysis.
A single center, single dose, open label, two-period crossover trial was devised for study in healthy subjects. Each administration was a single oral dose of one Skelaxin® 400 mg tablet with or without food. The study drug was administered as follows:
Treatment A: One (1) 400 mg tablet of metaxalone with 240 mL of room temperature water with food: Breakfast was given to the subjects 30 Minutes prior to dosing and eaten within a 15 minute period. The dose of study drug was administered to the subjects 15 minutes after the breakfast was finished.
Treatment B: One (1) 400 mg tablet of metaxalone with 240 mL of room temperature water without food. The study drug was administered with 240 mL room temperature water. A mouth check was performed to verify that the subjects swallowed the dose. Subjects were sequentially dosed at 1-minute intervals. The actual time of dosing was recorded on the Master Flow Sheet (refer to the Appendix 16.3.2 Clinical Study Data). Drug administration (1×400 mg tablet) was assisted with 240 mL of room temperature water consumed under direct observation. Immediately after administration of product, the subject's oral cavity was checked to confirm complete medication and fluid consumption. Dosing was completed as scheduled in 42 of 44 subjects.
The drug substance, metaxalone, was dosed in tablet form. Content 400 mg; Route: Oral, Batch/Lot No.: SKLWW263F; Expiration Date: FEB03; Manufacturer: West-Ward Pharmaceutical Corp.
All pharmacokinetic parameters were analyzed by noncompartmental methods. The following PK parameters were calculated for the two PK profiles and are defined as follows: […]
Tmax: Time to maximum concentration;
Cmax: Observed maximum concentration;
kel: Slope of terminal linear portion of concentration/time curve;
T1/2: Half-life of metaxalone calculated as: 0.693/Kel;
AUC(last): Area under the curve to last quantifiable concentration as measured by the trapezoidal rule;
AUC(inf): The AUC value extrapolated to infinity calculated as:
AUC(inf)=AUC(last)+C(t)last/Kel where C(t)last is the last measurable concentration.
All statistical analyses were performed using SAS® software version 6.08 or higher. The pharmacokinetic parameters between the two treatments were compared using an appropriate ANOVA model (analysis of variance) that includes terms for treatment, sequence, and period effect. Ninety percent confidence intervals were computed for the Cmax and AUC values of the fed treatment with fasting as the reference treatment. During the study there were no protocol deviations to confound the pharmacokinetic and bioavailability analyses. Study results were not corrected for drug potency.
Differences were declared to be significant at the 5% level. […]

[3] = Treatment A: 400 mg tablet with food
[4] = Treatment B: 400 mg tablet without food
[5] = fed vs fasted, ln-transformed data

## Cc1cc(C)cc(OCC2CNC(=O)O2)c1 (centres unmarked) [metaxalone, 5-[(3,5-dimethylphenoxy)methyl]-2 oxazolidinone]
[1]; females n=24
  Pearson correlation, age vs ln(AUC(inf)): 0.416
  Pearson correlation, age vs ln(AUC(last)): 0.431
  Pearson correlation, age vs ln(Cmax): 0.336
  Spearman correlation, age vs ln(AUC(inf)): 0.368
  Spearman correlation, age vs ln(AUC(last)): 0.428
  Spearman correlation, age vs ln(Cmax): 0.279
[1]; males n=24
  Pearson correlation, age vs ln(AUC(inf)): −0.184
  Pearson correlation, age vs ln(AUC(last)): −0.178
  Pearson correlation, age vs ln(Cmax): −0.202
  Spearman correlation, age vs ln(AUC(inf)): −0.368
  Spearman correlation, age vs ln(AUC(last)): −0.365
  Spearman correlation, age vs ln(Cmax): −0.316
[1]; n=48
  Pearson correlation, age vs ln(AUC(inf)): 0.348
  Pearson correlation, age vs ln(AUC(last)): 0.349
  Pearson correlation, age vs ln(Cmax): 0.260
  Spearman correlation, age vs ln(AUC(inf)): 0.173
  Spearman correlation, age vs ln(AUC(last)): 0.189
  Spearman correlation, age vs ln(Cmax): 0.125
[2]; 400 mg tablets, single dose, with food vs without
  Bioavailability when administered with food: increased
[2]; Treatment A: 400 mg tablet with food, read-out: AUC(inf), least squares mean
  AUC(0-inf): 8540 ng·h/mL
[2]; Treatment A: 400 mg tablet with food, read-out: AUC(last), least squares mean
  AUC(0-t): 8440 ng·h/mL
[2]; Treatment A: 400 mg tablet with food, read-out: Cmax, least squares mean
  Cmax: 1770 ng/mL
[2]; Treatment A: 400 mg tablet with food, read-out: Ln-Transformed AUC(inf), geometric mean
  AUC(0-inf): 7630 ng·h/mL
[2]; Treatment A: 400 mg tablet with food, read-out: Ln-Transformed AUC(last), geometric mean
  AUC(0-t): 7520 ng·h/mL
[2]; Treatment A: 400 mg tablet with food, read-out: Ln-Transformed Cmax, geometric mean
  Cmax: 1540 ng/mL
[2]; [3]
  half-life: 2.37 h
  Tmax: 4.29 h
[2]; Treatment B: 400 mg tablet without food, read-out: AUC(inf), least squares mean
  AUC(0-inf): 7480 ng·h/mL
[2]; Treatment B: 400 mg tablet without food, read-out: AUC(last), least squares mean
  AUC(0-t): 6960 ng·h/mL
[2]; Treatment B: 400 mg tablet without food, read-out: Cmax, least squares mean
  Cmax: 983 ng/mL
[2]; Treatment B: 400 mg tablet without food, read-out: Ln-Transformed AUC(inf), geometric mean
  AUC(0-inf): 6620 ng·h/mL
[2]; Treatment B: 400 mg tablet without food, read-out: Ln-Transformed AUC(last), geometric mean
  AUC(0-t): 6090 ng·h/mL
[2]; Treatment B: 400 mg tablet without food, read-out: Ln-Transformed Cmax, geometric mean
  Cmax: 865 ng/mL
[2]; [4]
  half-life: 9.04 h
  Tmax: 3.32 h
[2]; [5]
  % Ratio (A/B) AUC(inf): 115.35%
  % Ratio (A/B) AUC(last): 123.48%
  % Ratio (A/B) Cmax: 177.53%
